Assay results: US20250186405A1, “Compound For Use In Treating Narcolepsy” (Alkermes, Inc., priority 2023, published 2025)

Tested on: healthy adult subjects
Assay: Part 2 MAD: treatment-emergent adverse events, once daily for 10 days (N = 6 per dose)
Format: in vivo, human
Description: Part 2 of the study is a MAD evaluation in healthy subjects consisting of 4 cohorts: Cohorts 1-4 received powder-in-capsule or matching placebo. Dose levels were as follows:
Safety assessments were made. A plasma PK sample was collected pre-dose on Day 8.

## CS(=O)(=O)N[C@H]1CCCN2C(=O)COc3ccccc3C3CCC(CC3)OCC12 (stereo partly drawn) [Compound A, N-[(4S,4aR,7α,10α)-1,2,3,4,4a,5,7,8,9,10,16,17-dodecahydro-17-oxo-7,10-ethanopyrido[1,2-d][1,7,4]benzodioxaazacyclotridecin-4-yl]methanesulfonamide]
3 mg
  AE Leading to Study Drug Discontinuation: 0 n
  Any SAEs: 0 n
  Any TEAE: 2 n
  Death: 0 n
  TEAE Abdominal pain: 0 n
  TEAE Abdominal pain lower: 0 n
  TEAE Abnormal dreams: 1 n
  TEAE Back pain: 0 n
  TEAE Balance disorder: 0 n
  TEAE Blood pressure systolic increased: 0 n
  TEAE Cough: 1 n
  TEAE Depressed mood: 0 n
  TEAE Diarrhoea: 0 n
  TEAE Dizziness: 0 n
  TEAE Euphoric mood: 0 n
  TEAE Feeling of relaxation: 0 n
  TEAE Headache: 0 n
  TEAE Hypervigilance: 0 n
  TEAE Insomnia: 0 n
  TEAE Nocturia: 0 n
  TEAE Photophobia: 0 n
  TEAE Pollakiuria: 0 n
  TEAE Salivary hypersecretion: 0 n
  TEAE Visual impairment: 0 n
  TEAE Vomiting: 0 n
  TEAE by Highest Relationship: Not Related: 2 n
  TEAE by Highest Relationship: Related: 0 n
  TEAE by Highest Severity: Mild: 2 n
  TEAE by Highest Severity: Moderate: 0 n
  TEAE by Highest Severity: Severe: 0 n
8 mg
  AE Leading to Study Drug Discontinuation: 0 n
  Any SAEs: 0 n
  Any TEAE: 5 n
  Death: 0 n
  TEAE Abdominal pain: 1 n
  TEAE Abdominal pain lower: 1 n
  TEAE Abnormal dreams: 0 n
  TEAE Back pain: 0 n
  TEAE Balance disorder: 0 n
  TEAE Blood pressure systolic increased: 0 n
  TEAE Cough: 0 n
  TEAE Depressed mood: 1 n
  TEAE Diarrhoea: 2 n
  TEAE Dizziness: 0 n
  TEAE Euphoric mood: 0 n
  TEAE Feeling of relaxation: 0 n
  TEAE Headache: 0 n
  TEAE Hypervigilance: 1 n
  TEAE Insomnia: 2 n
  TEAE Nocturia: 1 n
  TEAE Photophobia: 1 n
  TEAE Pollakiuria: 0 n
  TEAE Salivary hypersecretion: 0 n
  TEAE Visual impairment: 0 n
  TEAE Vomiting: 1 n
  TEAE by Highest Relationship: Not Related: 3 n
  TEAE by Highest Relationship: Related: 2 n
  TEAE by Highest Severity: Mild: 4 n
  TEAE by Highest Severity: Moderate: 1 n
  TEAE by Highest Severity: Severe: 0 n
15 mg
  AE Leading to Study Drug Discontinuation: 0 n
  Any SAEs: 0 n
  Any TEAE: 3 n
  Death: 0 n
  TEAE Abdominal pain: 0 n
  TEAE Abdominal pain lower: 0 n
  TEAE Abnormal dreams: 0 n
  TEAE Back pain: 0 n
  TEAE Balance disorder: 0 n
  TEAE Blood pressure systolic increased: 0 n
  TEAE Cough: 0 n
  TEAE Depressed mood: 0 n
  TEAE Diarrhoea: 0 n
  TEAE Dizziness: 3 n
  TEAE Euphoric mood: 0 n
  TEAE Feeling of relaxation: 0 n
  TEAE Headache: 1 n
  TEAE Hypervigilance: 0 n
  TEAE Insomnia: 1 n
  TEAE Nocturia: 0 n
  TEAE Photophobia: 0 n
  TEAE Pollakiuria: 1 n
  TEAE Salivary hypersecretion: 0 n
  TEAE Visual impairment: 2 n
  TEAE Vomiting: 0 n
  TEAE by Highest Relationship: Not Related: 0 n
  TEAE by Highest Relationship: Related: 3 n
  TEAE by Highest Severity: Mild: 3 n
  TEAE by Highest Severity: Moderate: 0 n
  TEAE by Highest Severity: Severe: 0 n
25 mg
  AE Leading to Study Drug Discontinuation: 1 n
  Any SAEs: 0 n
  Any TEAE: 5 n
  Death: 0 n
  TEAE Abdominal pain: 0 n
  TEAE Abdominal pain lower: 0 n
  TEAE Abnormal dreams: 0 n
  TEAE Back pain: 1 n
  TEAE Balance disorder: 1 n
  TEAE Blood pressure systolic increased: 1 n
  TEAE Cough: 0 n
  TEAE Depressed mood: 0 n
  TEAE Diarrhoea: 0 n
  TEAE Dizziness: 3 n
  TEAE Euphoric mood: 1 n
  TEAE Feeling of relaxation: 1 n
  TEAE Headache: 0 n
  TEAE Hypervigilance: 0 n
  TEAE Insomnia: 3 n
  TEAE Nocturia: 0 n
  TEAE Photophobia: 0 n
  TEAE Pollakiuria: 2 n
  TEAE Salivary hypersecretion: 1 n
  TEAE Visual impairment: 1 n
  TEAE Vomiting: 0 n
  TEAE by Highest Relationship: Not Related: 0 n
  TEAE by Highest Relationship: Related: 5 n
  TEAE by Highest Severity: Mild: 4 n
  TEAE by Highest Severity: Moderate: 1 n
  TEAE by Highest Severity: Severe: 0 n
Total (N = 24)
  AE Leading to Study Drug Discontinuation: 1 n
  Any SAEs: 0 n
  Any TEAE: 15 n
  Death: 0 n
  TEAE Abdominal pain: 1 n
  TEAE Abdominal pain lower: 1 n
  TEAE Abnormal dreams: 1 n
  TEAE Back pain: 1 n
  TEAE Balance disorder: 1 n
  TEAE Blood pressure systolic increased: 1 n
  TEAE Cough: 1 n
  TEAE Depressed mood: 1 n
  TEAE Diarrhoea: 2 n
  TEAE Dizziness: 6 n
  TEAE Euphoric mood: 1 n
  TEAE Feeling of relaxation: 1 n
  TEAE Headache: 1 n
  TEAE Hypervigilance: 1 n
  TEAE Insomnia: 6 n
  TEAE Nocturia: 1 n
  TEAE Photophobia: 1 n
  TEAE Pollakiuria: 3 n
  TEAE Salivary hypersecretion: 1 n
  TEAE Visual impairment: 3 n
  TEAE Vomiting: 1 n
  TEAE by Highest Relationship: Not Related: 5 n
  TEAE by Highest Relationship: Related: 10 n
  TEAE by Highest Severity: Mild: 13 n
  TEAE by Highest Severity: Moderate: 2 n
  TEAE by Highest Severity: Severe: 0 n
Multiple doses 3 to 25 mg once daily for 10 days
  Tolerability: well tolerated
